Among the data in PubChem BioAssay AID493002 (Sanford-Burnham Center for Chemical Genomics, 2010) are IC50 values, retold here.

Molecules are shown by their SMILES. The source made the active and inactive calls. How the calls were made is not given here.

The subject of this experiment is S. cerevisiae tim23-1 mutant growth, luminescence. Put plainly: potency against tim23-1 yeast growth – luminescence, uHTS hits, dose response (AID 493002).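 Further: yeast grown roughly 22 hours at 25 °C before the luminescence read.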
Consider `c1ccc2[nH]c(-c3ccc4c(c3)OCO4)nc2c1`, for which the IC50 (in general, the concentration needed to halve the response being measured) was 8.63 µM.

For `Nc1ncnc2c1ncn2[C@@H]1O[C@H](CO)C[C@H]1O`, the IC50 is 14 µM.

In the case of `CCc1sc(C(=O)Nc2ccc3c(c2)OCO3)cc1C`, the IC50 is 19.2 µM.

Turning to `Cc1ccc2[nH]c3ccccc3c(=O)c2c1`, the IC50 was 13.6 µM.

Consider `COc1cccc(Nc2nc(-c3ccccc3)nc3ccccc23)c1`, for which the IC50 is 5.63 µM.

`CC(C)N=c1scc(-c2ccco2)n1/N=C/c1ccc(O)c(O)c1`: the concentration for half-maximal inhibition (IC50) is 11.9 µM.

On to `Cc1ccc(C(=O)NC2=NCCS2)cc1Cl`, for which the IC50 is 16.6 µM.

As for `COc1cc2c(cc1OC)/C(=C/c1ccc(Cl)cc1)C(=O)OC2`, the IC50 is 8.86 µM.

As for `Cc1nc2nc(-c3cccs3)[nH]c2cc1Br`, the IC50 is 7.8 µM.

In the case of `CCC1CCc2sc(C(=O)N(C)CC(=O)Nc3ccc(OC)cc3)cc2C1` (stereo not drawn), the IC50 was 19.5 µM.

Consider `CCOC(=O)c1c(C)oc2c(F)c(F)c(F)c(F)c2c1=O`, for which the IC50 was 13.1 µM.

As to `C[C@@]12C(=O)Nc3ccc(Br)cc3C(=O)N1[C@H]1c3ccccc3OC[C@@H]1[C@@H]2c1ccccc1`, the IC50 is 2.66 µM.

With `Cc1cccc(C(=O)OCC(=O)NC23CC4CC(CC(C4)C2)C3)c1O`, the 50% inhibitory concentration (IC50) was 12.5 µM.

Regarding `O=C(Oc1cccc2c(O)cccc12)c1ccccc1`, the IC50 was 8.69 µM.

For the compound `CC1=NN(c2ccccc2)C(=O)/C1=C/c1c(O)n(-c2ccc(F)c(Cl)c2)[nH]c1=O`, the IC50 is 24.3 µM.

`CCOC(=O)c1sc(=NC(=O)c2ccco2)n(C)c1C`: the half-inhibitory concentration (IC50) was 14.1 µM.

Consider `O=C(CS(=O)(=O)c1ccccc1)Nc1nc(-c2ccc(F)cc2)cs1`, for which the 50% inhibitory concentration (IC50) was 14.2 µM.

As for `O=C(Nc1ccc2nc(-c3ccc(Br)o3)[nH]c2c1)c1ccco1`, the IC50 was 5.88 µM.

With `COc1ccc(N2CCN(CCC(=O)c3ccc4ccccc4c3)CC2)cc1`, the IC50 is 8.84 µM.

As for `NNC(=O)c1nc(-c2ccccc2)cc(-c2ccccc2)n1`, the IC50 is 6.65 µM.

With `O=c1c2cc(Br)ccc2nc(-c2ccccc2)n1O`, the IC50 is 19.1 µM.

`Cc1ccc2oc(C(Cl)(Cl)Cl)cc(=O)c2c1`: the IC50 is 4.38 µM.

As for `Cc1nc2c(n1C1CCCCC1)C(=O)c1ccccc1C2=O`, the IC50 is 10.8 µM.

As to `CCC(C)c1ccc(NC(=O)COC(=O)C2CCCC2)cc1` (stereo not drawn), the IC50 was 10.7 µM.

For `CCOC(=O)CSc1c(-c2cccs2)[nH]c2ccccc12`, the IC50 was 15.2 µM.

As to `Oc1ccc(-c2nccc(-c3cccs3)n2)cc1`, the IC50 is 20.2 µM.

Take `Cc1ccc(CS(=O)(=O)c2ncc(Cl)c(C(=O)Nc3ccc(OC(F)F)cc3)n2)cc1`: the IC50 was 1.86 µM.

For the compound `O=C1OC(c2ccccc2)=N/C1=C\C=C\c1ccco1`, the IC50 is 5.33 µM.

Turning to `N#Cc1c(NC(=O)C2CC2)sc2c1CCCCC2`, the IC50 was 14.6 µM.

On to `N#C/C(=C\c1ccc(O)cc1)c1nc2ccccc2o1`, for which the concentration for half-maximal inhibition (IC50) was 6.42 µM.

For the compound `COCCNC(=O)/C(C#N)=C/c1ccc(OCc2ccc(F)cc2)cc1`, the IC50 is 10.5 µM.

Consider `COc1ccc(CCn2c(C(C)C)nc3oc4ccccc4c(=O)c3c2=O)cc1`, for which the IC50 is 14.2 µM.

With `COc1ccc2c(=O)c3c(=O)n(Cc4ccco4)c(-c4ccccc4)nc3oc2c1`, the IC50 was 17.5 µM.

On to `Cc1nc2scc(C)n2c(=O)c1S(=O)(=O)Nc1ccc(OC(F)(F)F)cc1`, for which the IC50 was 6.96 µM.

With `CC1CCc2c(c3ccccc3n2C(=O)CCl)C1` (stereo not drawn), the IC50 is 3.68 µM.

On to `Cc1ccc(-c2nnc(C)c(N3CCCC3)n2)cc1`, for which the IC50 was 16.6 µM.

As to `O=c1oc(-c2ccc(Br)o2)nc2ccccc12`, the IC50 was 9.8 µM.

For `Cc1ccc(/C=N/NC(=O)c2ccc3c(c2)OCCO3)s1`, the half-inhibitory concentration (IC50) was 34.6 µM.

As for `O=C(Nc1cc(-c2ccccc2)[nH]n1)c1ccccc1`, the IC50 was 4.2 µM.

Turning to `O=C1NN=C(c2ccc(Cl)cc2)CC1c1cccc(Br)c1` (stereo not drawn), the IC50 is > 100 µM (inactive).

Consider `CC(C)n1cc(NC(=O)c2cc(-c3ccccc3)on2)cn1`, for which the IC50 is 7.69 µM.

On to `O=C(N/N=C/C(Cl)=C\c1ccccc1)c1cccs1`, for which the IC50 is 4.85 µM.

In the case of `O=C(NC(=O)c1ccccc1F)OCc1ccc(Cl)cc1Cl`, the IC50 is 11.9 µM.

Regarding `COc1ccc(CCN(/C=C2\Sc3ccccc3C2=O)C(C)=O)cc1OC`, the IC50 was 14 µM.

As to `Nc1nc(-c2ccc(-c3ccccc3)cc2)cs1`, the IC50 was 14.9 µM.

Consider `Cc1ccc(CNc2oc(-c3cccs3)nc2C#N)cc1`, for which the half-inhibitory concentration (IC50) was 25.6 µM.

With `CC1=C(C)/C(=N/OC(=O)c2cccc([N+](=O)[O-])c2)C=CC1=O`, the IC50 was 8.03 µM.

On to `O=c1c2ccccc2nc(-c2ccc([N+](=O)[O-])cc2)n1O`, for which the IC50 is 7.67 µM.

Regarding `CCCn1nnc(NC(=O)c2sc3ccccc3c2Cl)n1`, the IC50 was 20.7 µM.

For `CC1CCN(c2nnc(N3CCC(C)CC3)c3ccccc23)CC1`, the IC50 is 34.9 µM.

For `CCOC(=O)c1c(NC(=O)CSc2nnnn2-c2ccc(OC)cc2)sc(C)c1C`, the IC50 is 4.12 µM.

`Cn1c(=O)c(C(=O)Nc2ncccn2)c(O)c2ccccc21`: the IC50 was 8.49 µM.

On to `CCCCCOC(=O)Cc1c(C)nc(-c2ccccc2)[nH]c1=O`, for which the IC50 was 13.2 µM.

In the case of `Cc1ccc(-c2nn(-c3ccccc3)cc2NC(=O)CCl)cc1`, the IC50 was 4.31 µM.

With `O=CN(/C=C1\Sc2ccccc2C1=O)Cc1ccccc1`, the 50% inhibitory concentration (IC50) is 7.02 µM.

For `O=C(/C=C/c1ccccc1)Oc1cccc2cccnc12`, the IC50 was 21.3 µM.

Take `Brc1ccc(-n2cnc(-c3ccccc3)c2)cc1`: the IC50 is 12.5 µM.

For `COc1ccc(C(=O)Nc2nc3ccccc3s2)c(OC)c1`, the IC50 was 5.92 µM.

Turning to `O=C(Nc1ccc2c(c1)OCCO2)c1cccc(Br)c1`, the IC50 is 14.5 µM.

For the compound `O=C(Nc1scc(-c2ccccc2)c1C(=O)O)c1ccccc1F`, the IC50 is 12.2 µM.

Regarding `Cc1ccn2cc(C(=O)Nc3ccc4c(c3)OCCO4)nc2c1`, the half-maximal inhibitory concentration (IC50) is 7.9 µM.

On to `c1ccc(N=Nc2cn[nH]c2-c2ccco2)cc1`, for which the IC50 was 11.3 µM.

`COc1ccc(-c2cc(-c3ccccc3)n[nH]2)c(O)c1`: the IC50 is 18.3 µM.

Turning to `O=C(Nc1ccc(Oc2cccc3ccccc23)cc1)c1ccco1`, the IC50 was 8.33 µM.

With `OCCOCCNc1ncnc2c1c(-c1ccccc1)cn2-c1ccccc1`, the IC50 is 10.7 µM.

For `Cc1cc(C)nc(SCC(=O)c2cc3ccccc3oc2=O)n1`, the IC50 was 9.91 µM.

Consider `O=C(N/N=C/c1ccc(Br)s1)c1c[nH]c2ccccc12`, for which the IC50 is 14.9 µM.

In the case of `COc1cc(C(=O)N/N=C/c2coc3ccc(Cl)cc3c2=O)ccc1O`, the IC50 is 4.34 µM.

As to `CN=c1scc(-c2cccs2)n1/N=C/c1ccc(O)c(O)c1O`, the IC50 was 10.5 µM.

Regarding `O=C(Nc1ccc(-c2ccc(N3CCCCC3)nn2)cc1)c1ccco1`, the IC50 was 10 µM.

With `CN1C(=O)C(=Cc2ccccc2OS(=O)(=O)c2ccccc2)C(=O)N(C)C1=O`, the IC50 was 6.59 µM.

For the compound `Cc1cnc(NC(=O)c2sc(Nc3ccccc3)nc2N)o1`, the IC50 is 9.39 µM.

On to `Cc1csc2nc(O)c(C(=O)NCCCc3ccccc3)c(=O)n12`, for which the half-maximal inhibitory concentration (IC50) is 7.87 µM.

Regarding `O=[N+]([O-])c1ccccc1S(=O)(=O)Nc1cccc2cccnc12`, the IC50 is 7.7 µM.

As for `O=C(Nc1ccc(F)c([N+](=O)[O-])c1)c1cccs1`, the IC50 is 15.3 µM.

For the compound `Cc1cccc(N2C(=O)c3ccc(Br)cc3C2=O)n1`, the IC50 is 12.7 µM.

As to `O=C(Nc1ccc(-c2nc3ccccc3[nH]2)cc1)C1CCCO1` (stereo not drawn), the concentration for half-maximal inhibition (IC50) is 14.4 µM.

For `Oc1ccc(-c2csc(Nc3ccccn3)n2)c(O)c1`, the concentration for half-maximal inhibition (IC50) is 24.9 µM.

As for `O=C(/C=C/c1ccccc1Cl)Nc1ccccc1`, the IC50 is 12.2 µM.

Regarding `Cc1ccc(O)c(C(=O)c2cnn(C(=O)Cc3csc(C)n3)c2)c1`, the IC50 is 12.4 µM.

For the compound `Cc1ccc2c(c1)C(=O)N1[C@H]3c4ccccc4OC[C@@H]3[C@H](c3ccccc3)[C@]1(C)C(=O)N2`, the IC50 was 4.99 µM.

Consider `O=C(N/N=C/c1ccc2cccnc2c1)c1ccco1`, for which the IC50 is 18.8 µM.

For the compound `O=C(Nc1ccc(Cl)cc1)c1cccs1`, the IC50 is 11 µM.

Take `O=C(Nc1ccc(Nc2ccccc2)cc1)c1ccccc1F`: the IC50 is 21.9 µM.

On to `Cc1cccc(N=Nc2cnc(N)s2)c1`, for which the IC50 was 15.1 µM.

For the compound `O=C(/C(=C/O)N=Nc1ccccc1)c1ccco1`, the IC50 was 10.7 µM.

Turning to `CC1(C)OC(=O)C(=Cc2ccc[nH]2)C(=O)O1`, the IC50 was 8.73 µM.

On to `O=C(Nc1ccc(Br)c(Cl)c1)C1CC1`, for which the half-inhibitory concentration (IC50) is 18.3 µM.

With `CCCCc1cc(O)c(CCCC)c(O)c1`, the IC50 is 3.69 µM.

With `O=C1c2ccccc2C(=O)N1c1nc(-c2cccs2)cs1`, the IC50 is 3.63 µM.

`Oc1ccc2ccccc2c1/C=N/c1nccs1`: the IC50 is 10.4 µM.

As for `O=C(Nc1cccc(NC(=O)c2cccs2)c1)c1ccc(Br)o1`, the IC50 was 9.28 µM.

Regarding `Cc1ccc2nc(NC(=O)COC(=O)c3cccnc3)sc2c1`, the IC50 was 9.58 µM.

Regarding `O=C(Nc1ccc(-c2cn3ccccc3n2)cc1)c1ccco1`, the IC50 was 6.01 µM.

As for `Cc1ccc(NC(=O)c2cc(C)n(-c3ccccc3)c2C)cc1`, the IC50 is 21 µM.

Regarding `O=C(Nc1ccc2c(c1)OCCO2)c1cccc(Cl)c1`, the IC50 is 11.6 µM.

With `Cc1ccc(O)c(N=Cc2cc(Cc3ccccc3)cc([N+](=O)[O-])c2O)c1`, the IC50 was 10.6 µM.

As for `Oc1ccc(N=Nc2ccccc2)cc1`, the IC50 was 15.3 µM.

On to `Cc1ccc(S(=O)(=O)N[C@@H](Cc2ccccc2)C(=O)CCl)cc1`, for which the IC50 is 2.18 µM.

As for `O=C(Nc1nsc(-c2ccccc2)n1)c1cccs1`, the IC50 was 8.04 µM.

Take `COC(=O)c1cccc(NC(=O)c2ccc(OC)c(Cl)c2)c1`: the IC50 was 20.6 µM.

`O=C(/C=C\Nc1cccc(F)c1)c1cccs1`: the IC50 is 7.31 µM.

On to `CC1CCN(C(=O)c2ccc3c(c2)NC(=O)/C(=C/c2ccccc2)S3)CC1`, for which the 50% inhibitory concentration (IC50) is 13.6 µM.

Consider `COc1cc(/C=C/[N+](=O)[O-])ccc1OC(=O)c1cc2ccccc2oc1=O`, for which the IC50 was 4.02 µM.

With `O=C(c1cc(-c2ccc(O)cc2)on1)N1CCCc2ccccc21`, the IC50 was 12.9 µM.

For `CCOC(=O)Nc1cccc(NC(=O)c2ccccc2F)c1`, the IC50 was 13.3 µM.

Consider `Fc1ccccc1-c1cc2cc3c(cc2cn1)OCO3`, for which the IC50 is 16.1 µM.

Consider `O=C(NCc1cccnc1)/C(=C\c1ccc(-c2ccc(Br)cc2)o1)S(=O)(=O)c1ccccc1`, for which the IC50 was 4.25 µM.
